Test results reported in patent US9458437B2, “Neuroprotective peptides that inhibit interaction between palmitoyl acyl transferase zinc-finger DHHC type containing 17 (zD17) and c-jun N-terminal kinase (JNK)” (The University of British Columbia, priority 2011, dated 2016).

What was measured:
[1] = system: middle cerebral artery occlusion (MCAo); assay: transient MCAo in SD rats, infarct volume (TTC histology); format: in vivo, Sprague-Dawley rat
neuronal cultures = assay: LDH assay and PI staining, NMDA excitotoxicity-induced neuronal cell death; format: cell-based, rat; conditions: for excitotoxicity-induced cell death as measured by LDH release and PI staining: pretreatment, NMDA challenge 1 h, 24 h survival
Method: For biochemical studies, neurons were seeded in six-well culture plates with a density of 7.5×10^5 cells per well. For LDH assay and cell death detection, 24-well culture plates were used with a neuron density of 2.5×10^5 cells per well. Neurons of 14-17 days in vitro (DIV) were used for experiments. […] HEK 293 cells were maintained in DMEM (Invitrogen™) supplemented with 10% fetal bovine serum and 1% penicillin/streptomycin. For protein expression in cell lines, cells were transfected with Calcium Phosphate Transfection reagent (Promega™, San Luis Obispo, Calif., USA) and used 24 h later as described previously (Yang et al., 2009). The JNK inhibitor, L-JNKI, was purchased from Alexis Biochemicals™ (San Diego, Calif.). Thrombin was obtained from BIOPUR™ (Bubendorf, Switzerland). Other assay reagents without indication were obtained from Sigma™.
Neuronal cultures were challenged with indicated concentrations of NMDA for 1 h, followed by 24 h survival. The release of lactate dehydrogenase (LDH) was measured with an in vitro toxicology assay kit (Sigma™) according to the manufacturer's instructions. Spectrophotometric measurement was performed on a Multilabel Plate Reader (Envision™ 2103, Perkin Elmer™). The LDH reading represents the primary absorbance at a wavelength of 490 nm after subtraction of background absorbance at 690 nm. LDH readings were then converted to a percentage of neuronal death by dividing by the readings from cultures incubated with 1% triton for 15 min representing total LDH. Following the LDH assay, propidium iodide (PI) (Sigma™) was added to the medium at a final concentration of 1 μg/ml and neurons were stained for 30 min at 30° C. After fixation with 4% paraformaldehyde, neurons were washed with 1×PBS and stained with Hoechst™ 33342 (Sigma™). The fluorescence of PI and Hoechst™ were examined with laser microscopy and analyzed with ImageJ™.

[2] = system: middle cerebral artery occlusion (MCAo); assay: transient MCAo in SD rats, neurological scores; format: in vivo, Sprague-Dawley rat; set-up: key: summed neurological score, 0 to 27
[3] = system: middle cerebral artery occlusion (MCAo); assay: transient MCAo in SD rats, adhesive removal test (ART); format: in vivo, Sprague-Dawley rat
Method: Adult male Sprague-Dawley (SD) rats weighing 250-290 g were employed for transient middle cerebral artery occlusion. Rats were anaesthetized with 5% isofluorane and maintained with 2% isofluorane in 70% N2O and 30% O2 using a face mask. 5 mg/kg ketoprofen was given pre-surgery to block pain. Rectal temperature was maintained at 37° C. during surgery with a homeothermic blanket system (Harvard Apparatus™, Holliston, Mass.). The scalp was incised at the midline and the skull was exposed. The skull was thinned with a dental drill at a region ipsilateral to the expected ischemia zone (2 mm posterior and 5 mm lateral from the bregma). A laser probe of the Doppler flowmeter (Perimed™, Jäffälla, Sweden) was placed at this location during surgery to detect cerebral blood flow (CBF) (Nagal et al., 2010). Transient MCAo was induced using a method of intraluminal vascular occlusion described elsewhere (Aarts et al., 2002; Belayev et al., 1996; and Longa et al., 1989). Briefly, a poly-L-lysine coated 3-0 monofilament nylon suture (Harvard Apparatus™, Holliston, Mass.) with a rounded tip was advanced from the left common carotid artery into the internal carotid artery until a sudden drop of CBF was noted, indicating the blockade of the origin of the MCA. The success of induction of ischemia was confirmed by a fall of CBF to less than 25% of baseline level and by neurological assessment scores during MCAo (1 h after the onset). Two hours after MCAo, rats were re-anaesthetized and the suture was removed to allow reperfusion, confirmed by the increase of CBF at the same area.
Peptides were synthesized by PepMetric Technologies™ or GL Biochem™ (Shanghai, China). Peptides were prepared freshly in saline on the day of experiment at a stock concentration of 1 mg/ml. 1 mg/kg peptides were administrated at indicated times (30 min before, 2 h after or 6 h after the onset of ischemia) by a single intravenous injection at rat tails. NIMoEscr or NIMoEsh were injected at 4 h after MCAo onset to randomly chosen rats. For long-term studies, peptides were given 2 h after MCAo onset. Injections of NIMoEscr and NIMoEsh were made, brain damage was assessed and functional evaluations performed in a double-blind manner To examine the delivery of the peptide into the brain, 5 mg/kg FITC-labelled NIMoE or only saline was intravenously injected 1 h before perfusion. The rats were then perfused with PBS followed by fixation solution (4% paraformaldehyde in PBS). Brains were removed, postfixed in fixation solution for 2 h and then soaked in 20% sucrose-PBS buffer at 4° C. for 24 h. After rapid freezing in Tissue-Tek™ embedding medium (Sakura™, Torrance, Calif.) on dry ice, 20 μm sections were cut on a cryostat (Leica™ CM3050, Ontario, Canada) and examined for FITC fluorescence by a laser microscopy (Zeiss™, Axiovert 200).
All animals were tested for neurological function during (1 h after onset) and 24 h after MCAo. Motor, sensory and coordination capacities were evaluated with modified Neurological Severity Scores (NSS) (Watanabe et al., 2004; Bederson et al., 1986). […] Coordination functions were assessed with 3 tests including a foot fault test, edge test and balance beam. Performance in the tests was evaluated on a cumulative scale from 0 to 2 (10 tests), except for two tests (tail suspension and balance beam in which scores ranged from 0 to Sand 0 to 4, respectively). […] The time spent on removing the tape from paw within 2 min was recorded.

caspase-3 = assay: NMDA-induced caspase-3 cleavage in neurons; format: cell-based, rat; conditions: neuronal cultures
c-jun = assay: NMDA-induced c-jun phosphorylation in neurons; format: cell-based, rat; conditions: neuronal cultures
[4] = peptide given 4 h after MCAo onset, day-1
[5] = peptide given 4 h after MCAo onset, day-3
[6] = peptide given 4 h after MCAo onset, day-7
[7] = peptide given 4 h after MCAo onset, day-14

Which results are given for “HRYRWLTDLLSMVTTPAAPM (NIMoEscr scrambled NIMoE) [negative control peptide resulting from a scrambled NIMoE, reference compound]”?
total infarct volume ([1]; scrambled control peptide group, injection time not given): 212.60±37.6 mm^3; excitotoxicity-induced cell death as measured by LDH release and PI staining (neuronal cultures): no protective effects; neurological scores ([2]; 22 h after onset of MCAo, scrambled control peptide group): 18.60±1.24; neurological scores [2, 4]: 19.25±0.80; neurological scores [2, 5]: 13.63±1.03; neurological scores [2, 6]: 7.13±0.58; neurological scores [2, 7]: 4.38±0.50; adhesive removal test (ART), contralateral side ([3]; scrambled control peptide group): 10.80 ± 2.06 s

Which “NMDA-induced caspase-3 cleavage” value (caspase-3) does the source give for “MTPLMWAAYRTHSVDPTRLL (listed as Homo sapiens) [NIMoE, peptide comprising motif-E of zD17, fused to the cell-membrane transduction domain of HIV-1 Tat for cell experiments]” here?
Its value is “effectively blocked”.

What about the “protection of neurons over NMDA concentrations” value (neuronal cultures; NMDA 10 μM to 100 μM) of the same sequence?
Its value is “protected neurons against a broad range of NMDA concentrations”.

And the “excitotoxicity-induced cell death as measured by LDH release and PI staining” value (neuronal cultures)?
The value was “significantly prevented”.

And the NMDA-induced c-jun phosphorylation (c-jun)?
Its NMDA-induced c-jun phosphorylation is “able to prevent”.

And the “adhesive removal test (ART), contralateral side” value (shortened to “adhesive removal test (ART)”) ([3]; injection +2 h)?
The value was 62.1 ± 8.60 s.

And the “adhesive removal test (ART)” value ([3]; injection +4 h)?
Its value is 60.83 ± 8.13 s.

What about the “adhesive removal test (ART)” value ([3]; injection −0.5 h) of the same sequence?
Its value is 48.62 ± 8.24 s.

Which results are given for “WAAYRTHSVD (listed as Homo sapiens) [NIMoEsh, shorter 10mer of NIMoE, primarily the loop region of motif-E (zD17 196-205)]”?
infarct volume compared with non-treated, saline-treated and scramble peptide-treated groups ([1]; post-surgical interventions at 2 h or 4 h): effective protection for the ischemic brain; total infarct volume ([1]; single i.v. injection +2 h after MCAo onset): 41.95±8.22 mm^3; total infarct volume ([1]; single i.v. injection +4 h after MCAo onset): 78.74±28.50 mm^3; total infarct volume ([1]; single i.v. injection −0.5 h (before MCAo onset), control 240.70±35.67): 43.43±9.82 mm^3; reduction of total infarct size ([1]; single intravenous injection 30 min before MCAo): about 80%; NMDA-induced caspase-3 cleavage (caspase-3): effectively blocked; excitotoxicity-induced cell death as measured by LDH release and PI staining (neuronal cultures): significantly prevented; NMDA-induced c-jun phosphorylation (c-jun): able to prevent; neurological scores ([2]; 22 h after onset of MCAo, injection +2 h): 8.50±0.75; neurological scores ([2]; 22 h after onset of MCAo, injection +4 h): 11.20±1.49; neurological scores ([2]; 22 h after onset of MCAo, injection −0.5 h, scale 0 to 27): 8.00±0.72; neurological scores [2, 4]: 11.43±1.96; neurological scores [2, 5]: 5.86±1.14; neurological scores [2, 6]: 1.71±0.47; neurological scores [2, 7]: 0.85±0.34; somatosensory functions in ART ([3]; MCAo rats): large preservation of somatosensory functions
